From US10183014B2, “Ocular formulations for drug-delivery and protection of the anterior segment of the eye” (PanOptica, Inc., priority 2014, dated 2019)
Like-named read-outs stand apart in the source and are kept apart here.

Key:
[1] = Ocular pharmacokinetics of formulations, Example 20-4; type: in vivo, Dutch Belted rabbits; conditions: Day 5, 1 hr post dose
Procedure: The study design (Table 18-1) consisted of forty-nine (49) Dutch Belted rabbits, each receiving a 30 μL bilateral topical ocular dose.
Ocular sampling occurred one hour following the first daily dose on Day 5 for all groups. Whole blood samples using K2EDTA as an anticoagulant were collected from all animals on Day 5, 1 hour post dose. The whole blood was placed on ice until samples were spun in a centrifuge to separate the plasma. Aqueous humor, conjunctiva, cornea, central retina, peripheral retina, central choroid, and peripheral choroid samples were collected following necropsy. Samples were then frozen at −70° C. or lower. For all Groups 1-16, plasma, central retina, central choroid, and cornea samples were assayed for PAN-90806.

[2] = tested on: retinal and choroidal neovascularization; assay: Pathologic retinal and choroidal neovascularization, rodent models, topical ocular delivery; type: in vivo
pathologic angiogenesis [3] = assay: Pathologic angiogenesis, murine cornea model, systemic administration; type: in vivo
pathologic angiogenesis [4] = assay: Pathologic angiogenesis, rat growth plate model, systemic administration; type: in vivo

Cl.NC(=O)c1c(OCc2c(F)cc(Br)cc2F)nsc1NC(=O)NCCCCN1CCCC1 [Compound-I, 3-[(4-bromo-2,6-difluorophenyl)methoxy]-5-[[[[4-(1-pyrrolidinyl)butyl]amino]carbonyl]amino]-4-isothiazolecarboxamide hydrochloride]
Plasma concentration ([1]; Group 1: 0.3 mg/mL Salt, pH 6, BID, LLOQ = 0.00188 μM): <LLOQ | Central Choroid concentration ([1]; Group 1: 0.3 mg/mL Salt, pH 6, BID, LLOQ = 0.0563 μM): <LLOQ | concentration at 1 h ([1]; Group 7: 4 mg/mL Salt suspension, PSD 30 μm/XL, TRIS 0.60%, glycerol 2%, HEC 0.3%, Tylox 0.04%, VitK3 1 μM, pH 6, QD, read-out: Central Retina concentration): 69.7 nM | Plasma concentration ([1]; Group 8: 4 mg/mL Salt suspension, PSD 30 μm/XL, TRIS 0.60%, glycerol 2%, HEC 0.2%, Tylox 0.04%, VitK3 1 μM, pH 6, QD): 6.62 nM | concentration at 1 h ([1]; Group 8: 4 mg/mL Salt suspension, PSD 30 μm/XL, TRIS 0.60%, glycerol 2%, HEC 0.2%, Tylox 0.04%, VitK3 1 μM, pH 6, QD, read-out: Central Choroid concentration): 152 nM | concentration at 1 h ([1]; Group 8: 4 mg/mL Salt suspension, PSD 30 μm/XL, TRIS 0.60%, glycerol 2%, HEC 0.2%, Tylox 0.04%, VitK3 1 μM, pH 6, QD, read-out: Central Retina concentration): 90.1 nM | Plasma concentration ([1]; Group 9: 4 mg/mL Salt suspension, PSD 30 μm/XL, TRIS 0.60%, glycerol 2%, HEC 0.3%, Tylox 0.04%, VitK3 1 μM, pH 7, QD): 7.38 nM | concentration at 1 h ([1]; Group 9: 4 mg/mL Salt suspension, PSD 30 μm/XL, TRIS 0.60%, glycerol 2%, HEC 0.3%, Tylox 0.04%, VitK3 1 μM, pH 7, QD, read-out: Central Retina concentration): 102 nM | Plasma concentration ([1]; Group 10: 4 mg/mL Salt suspension, PSD 30 μm/XL, TRIS 0.60%, glycerol 2%, HEC 0.2%, Tylox 0.04%, VitK3 1 μM, pH 7, QD): 5.28 nM | concentration at 1 h ([1]; Group 10: 4 mg/mL Salt suspension, PSD 30 μm/XL, TRIS 0.60%, glycerol 2%, HEC 0.2%, Tylox 0.04%, VitK3 1 μM, pH 7, QD, read-out: Central Choroid concentration): 166 nM | concentration at 1 h ([1]; Group 10: 4 mg/mL Salt suspension, PSD 30 μm/XL, TRIS 0.60%, glycerol 2%, HEC 0.2%, Tylox 0.04%, VitK3 1 μM, pH 7, QD, read-out: Central Retina concentration): 50.2 nM | Plasma concentration ([1]; Group 11: 4 mg/mL Salt suspension, PSD 30 μm/XL, TRIS 0.60%, glycerol 2%, HEC 0.3%, HPMC 0.08%, VitK3 1 μM, pH 6, QD): 4.65 nM | concentration at 1 h ([1]; Group 11: 4 mg/mL Salt suspension, PSD 30 μm/XL, TRIS 0.60%, glycerol 2%, HEC 0.3%, HPMC 0.08%, VitK3 1 μM, pH 6, QD, read-out: Central Choroid concentration): 154 nM | concentration at 1 h ([1]; Group 11: 4 mg/mL Salt suspension, PSD 30 μm/XL, TRIS 0.60%, glycerol 2%, HEC 0.3%, HPMC 0.08%, VitK3 1 μM, pH 6, QD, read-out: Central Retina concentration): 79.6 nM | Plasma concentration ([1]; Group 12: 4 mg/mL Salt suspension, PSD 30 μm/XL, TRIS 0.60%, glycerol 2%, HEC 0.2%, HPMC 0.08%, VitK3 1 μM, pH 6, QD): 3.66 nM | concentration at 1 h ([1]; Group 12: 4 mg/mL Salt suspension, PSD 30 μm/XL, TRIS 0.60%, glycerol 2%, HEC 0.2%, HPMC 0.08%, VitK3 1 μM, pH 6, QD, read-out: Central Choroid concentration): 137 nM | concentration at 1 h ([1]; Group 12: 4 mg/mL Salt suspension, PSD 30 μm/XL, TRIS 0.60%, glycerol 2%, HEC 0.2%, HPMC 0.08%, VitK3 1 μM, pH 6, QD, read-out: Central Retina concentration): 49 nM | Plasma concentration ([1]; Group 13: 4 mg/mL Salt suspension, PSD Native (≈50) μm/XXL, TRIS 0.60%, glycerol 2%, HEC 0.2%, HPMC 0.08%, VitK3 1 μM, pH 6, QD): 5.24 nM | concentration at 1 h ([1]; Group 13: 4 mg/mL Salt suspension, PSD Native (≈50) μm/XXL, TRIS 0.60%, glycerol 2%, HEC 0.2%, HPMC 0.08%, VitK3 1 μM, pH 6, QD, read-out: Central Choroid concentration): 234 nM | concentration at 1 h ([1]; Group 13: 4 mg/mL Salt suspension, PSD Native (≈50) μm/XXL, TRIS 0.60%, glycerol 2%, HEC 0.2%, HPMC 0.08%, VitK3 1 μM, pH 6, QD, read-out: Central Retina concentration): 67.7 nM | Plasma concentration ([1]; Group 14: 4 mg/mL Salt suspension, PSD 3 μm/Large, TRIS 0.60%, glycerol 2%, HEC 0.2%, HPMC 0.08%, VitK3 1 μM, pH 6, QD): 4.99 nM | concentration at 1 h ([1]; Group 14: 4 mg/mL Salt suspension, PSD 3 μm/Large, TRIS 0.60%, glycerol 2%, HEC 0.2%, HPMC 0.08%, VitK3 1 μM, pH 6, QD, read-out: Central Choroid concentration): 241 nM | concentration at 1 h ([1]; Group 14: 4 mg/mL Salt suspension, PSD 3 μm/Large, TRIS 0.60%, glycerol 2%, HEC 0.2%, HPMC 0.08%, VitK3 1 μM, pH 6, QD, read-out: Central Retina concentration): 99.2 nM | Plasma concentration ([1]; Group 15: 4 mg/mL Salt suspension, PSD 30 μm/XL, TRIS 0.60%, glycerol 2%, HEC 0.3%, HPMC 0.08%, VitK3 1 μM, pH 7, QD): 3.25 nM | concentration at 1 h ([1]; Group 15: 4 mg/mL Salt suspension, PSD 30 μm/XL, TRIS 0.60%, glycerol 2%, HEC 0.3%, HPMC 0.08%, VitK3 1 μM, pH 7, QD, read-out: Central Choroid concentration): 200 nM | concentration at 1 h ([1]; Group 15: 4 mg/mL Salt suspension, PSD 30 μm/XL, TRIS 0.60%, glycerol 2%, HEC 0.3%, HPMC 0.08%, VitK3 1 μM, pH 7, QD, read-out: Central Retina concentration): 53.2 nM | Pathologic retinal and choroidal neovascularization [2]: significant inhibition | Pathologic angiogenesis (pathologic angiogenesis [3]): inhibit | Pathologic angiogenesis (pathologic angiogenesis [4]): inhibit
